≈ marks a conversion by molar mass, not a printed value.
Key:
[1] = system: ATCC 25922 (Pan-S); test: Susceptibility by perturbation of VOCs, single indicator response after addition of antibiotic; format: cell-based, E. coli
From the text: (§1) However, it has been discovered that detection of changes in VOC output of microorganism—in addition to changes in the number of microorganisms—can be detected by the sensor 808 after application of antibiotics. The change in the sensor 808 response can also be correlated to susceptibility of the microorganism to antibiotics. For instance, it has been discovered that after application of antibiotics, certain sensors decrease or show less response at certain concentrations. This change in VOC output can be correlated to the resistance or susceptibility of the microorganisms in the sample to the antibiotic or other substance introduced. In other examples, a change in compound output that remain in solution (not limited to VOCs) may be correlated to a susceptibility of the microorganisms.
For instance, FIG. 48 illustrates an example of the response of the red spectrum of a single indicator (e.g. an indicator containing ZnTPP and Bromophenol Blue) on the sensor 808 in the presence of a sample. As shown, the antibiotic is added at 0.5 hours—in the example of the susceptible microorganism ATCC 25922 (Pan-S), the indicator red component drops off dramatically. The results can be noticed almost a half an hour to an hour after adding the antibiotic—far faster than to notice a general decline in emission of VOCs due to cell death or lack of growth of microorganisms. […]

[2] = system: E. coli AR 84 (ESBL); test: as above; format: cell-based; details: at all concentrations of Ampicillin
From the text: as §1
In the resistant strain illustrated in FIG. 48, AR 84 (ESBL), the antibiotic is added at the same time, but the red component of the sensor response continues to increase over time. […] Accordingly, in this embodiment, the sensor 808 response of a single indicator may be monitored. Changes in the slope of the indicator response over time, or decreases in the indicator may be monitored to determine when there is potentially a susceptible organism. […]

[3] = system: K. pneumoniae IS-007; details: cited from earlier work
[4] = system: K. pneumoniae IS-020; test: Colorimetric sensor array susceptibility test on solid growth media; format: cell-based, Klebsiella pneumoniae
From the text: (§2) To detect and identify a microorganism by species and/or strain, a sample including the microorganism is placed in a container including culture medium and a colorimetric array, and the temporal response of the sensors to the metabolic products of the microorganism is monitored. Susceptibility can be assessed by inoculating a growth medium including a substance (e.g., an antibiotic) with a microorganism and monitoring the response of the sensors while also monitoring the response of a control (e.g., no antibiotic).
(§3) FIG. 8 depicts an embodiment of a container 800 configured for use to assess a susceptibility or resistance of microorganisms. Container 800 includes base 802 and lid 804, with wells 806 positioned in base 802 opposite colorimetric sensor arrays 808 on lid 804. Microorganisms may be placed in contact with growth medium (e.g., a solid or liquid growth medium) in wells 806. A substance (e.g., a drug such as an antibiotic) may be added to the growth medium. In one example, rows and columns of wells 802 in container 800 may be used for different microorganisms, different substances (e.g., drugs including antibiotics that may potentially kill the microorganisms), and/or different concentrations of substances. After samples are loaded on wells 802, a lid 804 may be positioned over base 802, such that each colorimetric sensor array 808 is proximate a well 806 and in gaseous (or liquid) communication. In other embodiments, various other configurations could be utilized to bring the gas and volatile organic compounds emitted from the sample into gaseous proximity of the sensor array 808 at sufficient gaseous concentrations. The response of the sensor arrays 808 recorded by various detectors may then be assessed in order to determine a susceptibility or resistance of the various antibiotics or substances cultured with the sample. Susceptibility may be assessed via temporal response of the sensors in colorimetric sensor arrays 808 as described herein. Container 800 can be positioned in an apparatus (e.g., apparatus 700) for automated assessment of susceptibility and/or resistance.
(§4) FIGS. 9A-B show susceptibility of K. pneumoniae strains obtained in 6 hours in Muller-Hinton agar (x axis indicates time in hours). Susceptibility is indicated by a lack of metabolic products compared to controls (no antibiotic). […] FIGS. 10A-C show susceptibility of S. aureus strains obtained in 6 hours in Muller-Hinton agar.
(§5) In another susceptibility test, three strains of K. pneumoniae were inoculated onto the solid growth media with no antibiotic (control), piperacillin/tazobactam (PIP/TAZO) at concentrations of 16 ug/ml and 4 ug/ml, Cefepime at 8 ug/ml and Meropenem at 1 ug/ml. […] K. pneumoniae IS-020 was susceptible to all 3 antibiotics in agreement with known susceptibility information that this strain is susceptible to PIP/Tazo at <4 ug/ml, Cefepime <1 ug/ml and Meropenem at <0.25 ug/ml). K. pneumoniae IS-133 is known to be resistant at concentrations of PIP/Tazo below 128 ug/ml, Cefepime below 64 ug/ml and Meropenem below 16 ug/ml.

[5] = system: K. pneumoniae IS-007; test: as above; format: cell-based, Klebsiella pneumoniae
From the text: as §2, §3, §4, §5

[6] = system: K. pneumoniae IS-133; details: cited from earlier work
[7] = system: K. pneumoniae IS-020; details: cited from earlier work
[8] = system: S. aureus 29213 (MSSA); test: Susceptibility by perturbation of VOCs, single indicator response with antibiotic; format: cell-based; details: Staphylococcus aureus, observed in about 2.5 hours, FIG. 52
From the text: as §1
FIG. 52 illustrates two graphs showing the MIC observed for two different antibiotics to S. aureus 29213 (MSSA). The graph on the left portion of FIG. 52 illustrates a MIC of 1 μg/ml to Cefoxitin and the graph on the right illustrations a MIC of 0.5 μg/ml of Vancomycin.

[9] = system: E. coli (AR85); test: as above; format: cell-based; details: Escherichia coli; observed after 2.5 hours, FIG. 50; read-out: minimum inhibitory concentration (MIC)
From the text: as §1
FIG. 50 illustrates a graph showing the sensor response of a single sensor 808, dye or indicator to a sample of E. coli incubated in the presence of different concentrations of Ertapenem—a Carbapenem family of antibiotic. As illustrated, the single indicator can not only determine whether this strain of E. coli (AR85) is resistant to Ertapenem, but also the minimum inhibitory concentration (“MIC”). As illustrated, the minimum inhibitory concentration of 2 μg/ml is observed only after 2.5 hours. […]

[10] = system: S. aureus IS-123; details: cited from earlier work
[11] = system: S. aureus IS-124; details: cited from earlier work
[12] = system: S. aureus IS-120; test: Colorimetric sensor array susceptibility test on solid growth media; format: cell-based, Staphylococcus aureus
From the text: as §2, §3, §4
(§6) In another susceptibility test, three strains of S. aureus were inoculated onto the solid growth media. […] S. aureus IS-124 was susceptible to both antibiotics in agreement with known susceptibility information that this strain is susceptible to Oxacillin and Vancomycin.

[13] = system: S. aureus IS-123; test: as above; format: cell-based, Staphylococcus aureus
From the text: as §2, §3, §4, §6

[14] = system: S. aureus IS-124; test: as above; format: cell-based, Staphylococcus aureus
From the text: as §2, §3, §4, §6

[15] = system: S. aureus IS-120; details: cited from earlier work
[16] = PIP/TAZO at 16 ug/ml and 4 ug/ml

CC1(C)S[C@@H]2[C@H](NC(=O)[C@H](N)c3ccccc3)C(=O)N2[C@H]1C(=O)O [Ampicillin]
sensor response of single indicator after addition of antibiotic (FIG. 49) ([1]; Ampicillin at 0.5 mg/ml and 1.0 mg/ml): same response | MIC ([1]; Escherichia coli, ATCC25922, single sensor or indicator, FIG. 53): 1 to 8 µg/mL (≈ 2.86 to 22.9 µM) | sensor response of single indicator after addition of antibiotic (FIG. 49) [2]: decline in sensor response

CO/N=C(\C(=O)N[C@@H]1C(=O)N2C(C(=O)[O-])=C(C[N+]3(C)CCCC3)CS[C@H]12)c1csc(N)n1 [Cefepime]
known susceptibility information: concentration at which strain is susceptible [3]: < 0.25 µg/mL | known susceptibility information: concentration below which strain is resistant [3]: below 64 ug/ml | susceptibility or resistance by sensor response compared to control ([4]; Cefepime at 8 ug/ml): susceptible | susceptibility or resistance by sensor response compared to control ([5]; Cefepime at 8 ug/ml): resistance | known to be resistant at concentrations below [6]: below 64 ug/ml | known susceptibility information: concentration at which strain is susceptible [7]: < 1 µg/mL

CO[C@@]1(NC(=O)Cc2cccs2)C(=O)N2C(C(=O)O)=C(COC(N)=O)CS[C@@H]21 [Cefoxitin]
MIC [8]: 1 µg/mL (≈ 2.34 µM)

C[C@@H](O)[C@H]1C(=O)N2C(C(=O)O)=C(S[C@@H]3CN[C@H](C(=O)Nc4cccc(C(=O)O)c4)C3)[C@H](C)[C@H]12 [Ertapenem]
MIC [9]: 2 µg/mL (≈ 4.21 µM)

C[C@@H](O)[C@H]1C(=O)N2C(C(=O)O)=C(S[C@@H]3CN[C@H](C(=O)N(C)C)C3)[C@H](C)[C@H]12 [Meropenem]
susceptibility or resistance by sensor response compared to control ([4]; Meropenem at 1 ug/ml): susceptible | susceptibility or resistance by sensor response compared to control ([5]; Meropenem at 1 ug/ml): susceptibility | known to be resistant at concentrations below [6]: below 16 ug/ml | known susceptibility information: concentration at which strain is susceptible [7]: < 0.25 µg/mL

Cc1onc(-c2ccccc2)c1C(=O)N[C@@H]1C(=O)N2[C@@H]1SC(C)(C)[C@@H]2C(=O)O [Oxacillin]
known susceptibility information: concentration below which strain is resistant [10]: below 4 ug/ml | known susceptibility information: susceptible or resistant [11]: susceptible | susceptibility or resistance by sensor response ([12]; Oxacillin at 2 ug/ml): resistance | susceptibility or resistance by sensor response ([13]; Oxacillin at 2 ug/ml): resistance | susceptibility or resistance by sensor response [14]: susceptible | known susceptibility information: concentration below which strain is resistant [15]: below 4 ug/ml

CN[C@H](CC(C)C)C(=O)N[C@H]1C(=O)N[C@@H](CC(N)=O)C(=O)N[C@H]2C(=O)N[C@H]3C(=O)N[C@H](C(=O)N[C@H](C(=O)O)c4cc(O)cc(O)c4-c4cc3ccc4O)[C@H](O)c3ccc(c(Cl)c3)Oc3cc2cc(c3O[C@@H]2O[C@H](CO)[C@@H](O)[C@H](O)[C@H]2O[C@H]2C[C@](C)(N)[C@H](O)[C@H](C)O2)Oc2ccc(cc2Cl)[C@H]1O [Vancomycin]
known susceptibility information: susceptible or resistant [10]: susceptible | known susceptibility information: susceptible or resistant [11]: susceptible | susceptibility or resistance by sensor response ([12]; Vancomycin at 1-2 ug/ml): susceptibility | susceptibility or resistance by sensor response ([13]; Vancomycin at 1-2 ug/ml): susceptibility | susceptibility or resistance by sensor response [14]: susceptible | known susceptibility information: susceptible or resistant [15]: susceptible

piperacillin/tazobactam [PIP/Tazo]
known susceptibility information: concentration at which strain is susceptible [3]: 4 µg/mL | susceptibility or resistance by sensor response compared to control [4, 16]: susceptible | susceptibility or resistance by sensor response compared to control [5, 16]: susceptibility | known to be resistant at concentrations below [6]: below 128 ug/ml | known susceptibility information: concentration at which strain is susceptible [7]: < 4 µg/mL
